Results from patent US6861217B1, “Variation in drug response related to polymorphisms in the β2-adrenergic receptor” (Genaissance Pharmaceuticals, Inc., priority 1998, dated 2005).

Tested on: patients with asthma
Assay: bronchodilating response (FEF25-75) to albuterol in patients with asthma by 5′LC genotype
Format: in vivo, human
Details: for patients exhibiting a bronchodilating response (increase in FEF25-75 greater than 12%): 180 micrograms aerosolized, 30 minutes
Excerpt: For this study, 134 patients with asthma were enrolled to determine whether either of the polymorphisms at nucleic acid −47 in the β2AR gene alter the bronchodilating response to β-agonist. The percent (%) change in the forced expiratory flow between 25% and 75% of the forced vital capacity (FEF25-75) was used as a measure of responsiveness. Patients underwent pulmonary function testing to measure FEF25-75 and then received 2 puffs (total of 180 micrograms) of aerosolized albuterol by metered dose inhaler. Thirty minutes later the FEF25-75 measurement was repeated. Based on accepted national standards, an increase in FEF25-75 of greater than 12% was considered a response, while 12% or less was considered no response.

With `CC(C)(C)NCC(O)c1ccc(O)c(CO)c1` (stereo not drawn) [albuterol] the “patients exhibiting a bronchodilating response (increase in FEF25-75 greater than 12%)” value (TT genotype at the 5′LC PS) was 28.8%, the “odds ratio for having no response” value (TT genotype versus TC or CC) was 2.47 and the “patients exhibiting a bronchodilating response (increase in FEF25-75 greater than 12%)” value (without TT genotype (TC or CC)) was 71.1%.
